Measurements published in patent US8039616B2, “Benzodiazepine derivatives for treating hepatitis C infection” (AstraZeneca AB, priority 2005, dated 2011).

Target: T1, HCV Polymerase (Hepatitis C virus genotype 1a, UniProt P27958)
T1 construct: the HCV Polymerase was expressed and purified by Prof Alistair Hawkins; made in house
Experiment: Polymerase 96 well microtitre plate based IC50 assay (33P-UTP incorporation, streptavidin FlashPlates)
Assay type: biochemical
Conditions: polyA/biotinylated-U13 template-primer, 100 minutes at 25° C.
From the text: Polymerase 96 Well Microtitre Plate Based IC50 Assay
Inhibitors of HCV Polymerase can be detected radioactively by monitoring the incorporation of ^33P-UTP within an RNA template/Bi-primer system using streptavidin coated FlashPlates. The template and primer for the reaction can be bought externally from Amersham (Poly A) and MWG-Dharmacon (Biotinylated-U13). The cold UTP can be purchased from Roche and the HCV Polymerase was expressed and purified by Prof Alistair Hawkins at Newcastle University, UK.
50 μl substrate, 40 μl enzyme, 10 μl compound=100 μl assay
Compounds are diluted so that DMSO remains 10% at all times. E.g. 5 μl compound (10 mM)+5 μl DMSO+90 μl Buffer (see below for buffer)
Some 20 mM Tris-HCl, pH 7.5, 5 mM MgCl2, 25 mM KCL, 3 mM DTT and 0.05% BSA is made up.
The PolyA and Biotinylated U13 are annealed at 70° C. for 5 minutes to 40 μM U13 (212 μg/ml polyA.) and cooled gently on ice prior to use (110 μl primer (80 μM)+5.5 μl poly A+104.5 μl dH20.). Some 200 μl annealed primer/template is mixed with 12.8 μl UTP (1 mM stock), 25.6 μl 33p-UTP and 31761.6 μl Buffer to make the substrate mix.
From IC50 dilution plates 10 μl are transferred from column 3 into columns 3 and 3 on two separate assay plates. This is repeated for all compound dilutions to 2 separate assay plates. Then 10 μl 10% DMSO solution is added to positive and negative controls (see plate map below). In addition, 40 μl 20 mM Tris-HCl buffer is added to negative controls.
Then 50 μl substrate mix is added to all wells.
Then 40 μl enzyme mix each is added to all other wells and the reaction is left for 100 minutes shaking at 25° C.
The reaction is terminated with the addition of 100 μl, 100 mM EDTA and the volume is transferred to a streptavidin coated flash plate, covered and left for an hour.
All plates are washed three times in SkanWasher plate-washer (Skatron Instruments) under programme ‘AH’. The wash buffer contains, 0.01M phosphate buffer, 0.0027M potassium chloride and 0.137M sodium chloride, pH 7.4 at 25° C., 0.05% Tween
All plate are recovered and the cpmB read in the TopCount (supplied by DPM solutions), protocol 6.

T1 sequence (P27958 2421-3011): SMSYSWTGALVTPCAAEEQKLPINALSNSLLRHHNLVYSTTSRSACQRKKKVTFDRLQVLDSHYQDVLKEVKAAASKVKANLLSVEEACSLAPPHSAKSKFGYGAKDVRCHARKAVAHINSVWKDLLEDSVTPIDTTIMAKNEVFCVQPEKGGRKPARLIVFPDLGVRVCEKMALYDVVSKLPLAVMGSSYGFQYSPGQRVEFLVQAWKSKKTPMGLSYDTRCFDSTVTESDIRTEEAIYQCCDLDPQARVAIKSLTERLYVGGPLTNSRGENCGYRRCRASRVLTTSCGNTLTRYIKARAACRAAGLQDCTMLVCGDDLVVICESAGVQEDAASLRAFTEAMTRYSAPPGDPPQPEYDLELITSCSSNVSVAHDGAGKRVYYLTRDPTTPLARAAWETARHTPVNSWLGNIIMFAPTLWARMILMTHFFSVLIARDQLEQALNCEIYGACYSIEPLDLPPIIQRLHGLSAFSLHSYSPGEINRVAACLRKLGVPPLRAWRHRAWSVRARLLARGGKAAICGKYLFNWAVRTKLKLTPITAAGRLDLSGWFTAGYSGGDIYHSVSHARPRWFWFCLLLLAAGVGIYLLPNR

Row | SMILES | IC50 [nM]
1 | COc1ccc(OC)c(C(=O)NC2N=C(c3ccc(Cl)cc3)c3ccccc3NC2=O)c1 (stereo not drawn) [Example 3, N-[5-(4-Chloro-phenyl)-2-oxo-2,3-dihydro-1H-benzo[e][1,4]diazepin-3-yl]-2,5-dimethoxy-benzamide] | < 1000
2 | O=C(NC1N=C(c2ccc(Cl)cc2)c2ccccc2NC1=O)c1sccc1Br (stereo not drawn) [Example 12, 3-Bromo-thiophene-2-carboxylic acid [5-(4-chloro-phenyl)-2-oxo-2,3-dihydro-1H-benzo[e][1,4]diazepin-3-yl]-amide] | > 1000
3 | COc1ccc(Cl)cc1C(=O)N[C@H]1N=C(c2ccc(Cl)cc2)c2ccccc2NC1=O [Example 10, (S)-5-Chloro-N-[5-(4-chloro-phenyl)-2-oxo-2,3-dihydro-1H-benzo[e][1,4]diazepin-3-yl]-2-methoxy-benzamide] | < 1000
4 | COc1ccc(Cl)cc1C(=O)NC1N=C(c2ccc(Cl)cc2)c2ccccc2NC1=O (stereo not drawn) [Example 9, 5-Chloro-N-[5-(4-chloro-phenyl)-2-oxo-2,3-dihydro-1H-benzo[e][1,4]diazepin-3-yl]-2-methoxy-benzamide] | < 1000
5 | COc1ccc(F)cc1C(=O)N[C@@H]1N=C(c2ccc(Cl)cc2)c2ccccc2NC1=O [Example 8, (R)—N-[5-(4-Chloro-phenyl)-2-oxo-2,3-dihydro-1H-benzo[e][1,4]diazepin-3-yl]-5-fluoro-2-methoxy-benzamide] | > 1000
6 | CCOc1ccccc1C(=O)N[C@H]1N=C(c2ccc(Cl)cc2)c2ccccc2NC1=O [Example 2, (S)—N-[5-(4-Chloro-phenyl)-2-oxo-2,3-dihydro-1H-benzo[e][1,4]diazepin-3-yl]-2-ethoxy-benzamide] | > 1000
7 | COc1ccc(Cl)cc1C(=O)N[C@@H]1N=C(c2ccc(Cl)cc2)c2ccccc2NC1=O [Example 11, (R)-5-Chloro-N-[5-(4-chloro-phenyl)-2-oxo-2,3-dihydro-1H-benzo[e][1,4]diazepin-3-yl]-2-methoxy-benzamide] | > 1000
8 | COc1ccc(OC)c(C(=O)N[C@H]2N=C(c3ccc(Cl)cc3)c3ccccc3NC2=O)c1 [Example 4, (S)—N-[5-(4-Chloro-phenyl)-2-oxo-2,3-dihydro-1H-benzo[e][1,4]diazepin-3-yl]-2,5-dimethoxy-benzamide] | < 1000
9 | CCOc1ccccc1C(=O)NC1N=C(c2ccc(Cl)cc2)c2ccccc2NC1=O (stereo not drawn) [Example 1, N-[5-(4-Chloro-phenyl)-2-oxo-2,3-dihydro-1H-benzo[e][1,4]diazepin-3-yl]-2-ethoxy-benzamide] | > 1000
10 | COc1ccc(OC)c(C(=O)N[C@@H]2N=C(c3ccc(Cl)cc3)c3ccccc3NC2=O)c1 [Example 5, (R)—N-[5-(4-Chloro-phenyl)-2-oxo-2,3-dihydro-1H-benzo[e][1,4]diazepin-3-yl]-2,5-dimethoxy-benzamide] | > 1000
11 | COc1ccc(F)cc1C(=O)N[C@H]1N=C(c2ccc(Cl)cc2)c2ccccc2NC1=O [Example 7, (S)—N-[5-(4-Chloro-phenyl)-2-oxo-2,3-dihydro-1H-benzo[e][1,4]diazepin-3-yl]-5-fluoro-2-methoxy-benzamide] | > 1000
12 | COc1ccc(F)cc1C(=O)NC1N=C(c2ccc(Cl)cc2)c2ccccc2NC1=O (stereo not drawn) [Example 6, N-[5-(4-Chloro-phenyl)-2-oxo-2,3-dihydro-1H-benzo[e][1,4]diazepin-3-yl]-5-fluoro-2-methoxy-benzamide] | > 1000
